# Reference: patent publication US6893641B2, “Ganoderma lucidum spores for treatment of autoimmune diseases” (priority 1999, dated 2005)
# “Also recorded” adds a separate entry of the source. Read-outs that look alike come from different tables or passages of the source. Marks after values point to notes of the source that are not given here.
# Assays:
# NIH mice [1] = conditions: for No. of micronuclei: 10000 cells
# Description: Test material: The GLSs were brown powders. After going through a 100 mesh sieve, 120 g of the samples were mixed with 300 mL distilled water (to give a concentration of 40 g/dL) and stirred for 15 min in a stirrer at 7000 rpm. They were then bottled, underwent disinfection and antiseptic treatments, and 1 mL of a pasty liquid was obtained, which was about 0.4 g of the samples. Direct gavage was carried out two times per day.
# Mouse Bone Marrow Micronucleus Test:
# Seventy (70) NIH mice with body weights of 20-23 g were used in this test. The mice were divided into 7 groups and testing was carried out according to the methods of the Toxicological Evaluation Procedures for Food Safety. Gavage was carried out twice, and 6 hrs after the second force feeding, the mice were sacrificed, and both of the femurs were taken out for the preparation of a biopsy, staining and examination under a microscope.
# NIH mice [2] = experiment: Mouse sperm deformation test; assay type: in vivo; conditions: 0.04 g/kg, abdominal injections
# Source text: 3. Sperm Deformation Test
# Twenty five (25) NIH mice with body weights of 18-22 g, randomly divided into 5 groups and continuously force fed for 5 days (the Endoxan positive group received abdominal injections), were used in this test. Thirty five (35) days later, the animals were sacrificed and both testicles were taken out for the standard biopsy preparation and staining. Five thousand (5000) whole sperm from each group were examined under an oil immersion lens and the sperm deformation percentage was calculated.
# TA100 = experiment: Ames test, Petri dish mixing method, TA100; assay type: cell-based; conditions: TA100 −S9, positive control, dose not given
# Description: (§1) Test bacteria (TA97, TA98, TA100, TA102) were supplied by the Bureau of Food Inspection, Department of Health in Beijing. […] Using the Petri dish mixing method, two independent tests were carried out.
# TA98 = experiment: Ames test, Petri dish mixing method, TA98; assay type: cell-based; conditions: TA98 −S9, positive control, dose not given
# Description: as §1
# TA97 = experiment: Ames test, Petri dish mixing method, TA97; assay type: cell-based; conditions: TA97 −S9, positive control, dose not given
# Description: as §1
# SLE mice = experiment: T-lymphocyte populations in SLE mice under different treatments; assay type: in vivo
# Description: Spleens, lymph nodes, and thymus glands were collected under sterile conditions from the DBA/2 or BALB/C mice. Lymphocytes were then isolated and washed with Hanks solution 3 times. Cells were stained with 0.5% trypan blue and examined for viability. The lymphocytes were then adjusted to the desired concentrations.
# Kidney tissues were sampled and undergone morphologic analyses under light scope.
# Statistical analyses and t test, were carried out using SPAAS 10.0 computer software.
# [3] = blood at 168 hours after the first dosing, daily oral, GLSs 0.8 g/kg/day, prednisolone solution 50 mL/kg/day
smiles,measurement,setting,value
O=P1(N(CCCl)CCCl)NCCCO1 (centres unmarked) [Endoxan],No. of micronuclei,NIH mice [1]; listed as printed '(0.06)' g/kg under Endoxan,249
same,Percentage of micronuclei,"NIH mice [1]; listed as printed '(0.06)' g/kg under Endoxan, p < 0.001 vs other groups",24.9** 0/00
same,Percentage of micronuclei,NIH mice [1]; listed as printed '^ Endoxan',1.2 0/00
same,No. of micronuclei,NIH mice [1]; listed as printed '^ Endoxan',12
same,No of deformed sperm (count),NIH mice [2]; 5000 sperm,98
same,Percentage deformation,NIH mice [2]; p < 0.01 vs other groups,72.80**
[N-]=[N+]=[N-] [Sodium azide],colonies due to reverse mutation,TA100,>1500
CCN(CC)CCCC(C)Nc1c2ccc(Cl)cc2nc2ccc(OC)cc12 (centres unmarked) [Atabrine],colonies due to reverse mutation,TA98,>1433
same,colonies due to reverse mutation,TA97,>1500
C[C@]12C=CC(=O)C=C1CC[C@@H]1[C@@H]2[C@@H](O)C[C@@]2(C)[C@H]1CC[C@]2(O)C(=O)CO [prednisolone],"T %, Th %, Ts % and Th/Ts ratio compared with control groups",SLE mice; 168 hours after the first dosing,much better than those in the SLE control group; also recorded: improved the T cell counts in similar degree as those of GLSs
same,T(%),SLE mice; [3],51.30 ± 4.23%
same,Th (%),SLE mice; [3],31.44 ± 3.21%
same,Th/Ts,SLE mice; [3],1.12 ± 0.31
same,Ts (%),SLE mice; [3],28.43 ± 3.12%
